Reference: PubChem BioAssay (NCI)
“And” between values parts separate entries of the source, which are not always exact repeats. Equal values may be shown once.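 The compound was tested at five concentrations on cells cultured in 96-well plates, with a 48-hour exposure period. GI50 = concentration required for 50% inhibition of growth. At the TGI there is no net growth.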

Assays:
Assay in all cases: NCI-60 cell line screen, 48 h
SN12C renal = system: SN12C renal
SK-OV-3 ovarian = system: SK-OV-3 ovarian
NCI-H226 lung = system: NCI-H226 lung
RXF 393 renal = system: RXF 393 renal
HOP-18 NSCLC = system: HOP-18 NSCLC
SNB-75 CNS = system: SNB-75 CNS
SK-MEL-2 melanoma = system: SK-MEL-2 melanoma
UO-31 renal = system: UO-31 renal
NCI-H460 lung = system: NCI-H460 lung
COLO 205 colon = system: COLO 205 colon
UACC-62 melanoma = system: UACC-62 melanoma
SNB-19 CNS = system: SNB-19 CNS
IGROV1 ovarian = system: IGROV1 ovarian
CAKI-1 renal = system: CAKI-1 renal
MOLT-4 leukemia = system: MOLT-4 leukemia
HCC-2998 colon = system: HCC-2998 colon
A549 NSCLC = system: A549 NSCLC
786-0 renal = system: 786-0 renal
ACHN renal = system: ACHN renal
EKVX NSCLC = system: EKVX NSCLC
HCT-15 colon = system: HCT-15 colon
M19-MEL melanoma = system: M19-MEL melanoma
HCT-116 colon = system: HCT-116 colon
HT29 colon = system: HT29 colon
RPMI-8226 leukemia = system: RPMI-8226 leukemia
LXFL 529 NSCLC = system: LXFL 529 NSCLC
UACC-257 melanoma = system: UACC-257 melanoma
XF 498 CNS = system: XF 498 CNS
SF-295 CNS = system: SF-295 CNS
OVCAR-4 ovarian = system: OVCAR-4 ovarian
LOX IMVI melanoma = system: LOX IMVI melanoma
K-562 leukemia = system: K-562 leukemia
SW-620 colon = system: SW-620 colon
DLD-1 colon = system: DLD-1 colon
OVCAR-3 ovarian = system: OVCAR-3 ovarian
SK-MEL-28 melanoma = system: SK-MEL-28 melanoma
HL-60(TB) leukemia = system: HL-60(TB) leukemia
TK-10 renal = system: TK-10 renal
MALME-3M melanoma = system: MALME-3M melanoma
U251 CNS = system: U251 CNS
SK-MEL-5 melanoma = system: SK-MEL-5 melanoma
CCRF-CEM leukemia = system: CCRF-CEM leukemia
KM12 colon = system: KM12 colon
M14 melanoma = system: M14 melanoma
DMS 273 small cell lung = system: DMS 273 small cell lung
OVCAR-8 ovarian = system: OVCAR-8 ovarian
HOP-62 NSCLC = system: HOP-62 NSCLC
HOP-92 NSCLC = system: HOP-92 NSCLC
SNB-78 CNS = system: SNB-78 CNS
KM20L2 colon = system: KM20L2 colon
OVCAR-5 ovarian = system: OVCAR-5 ovarian
DMS 114 small cell lung = system: DMS 114 small cell lung
NCI-H23 lung = system: NCI-H23 lung
NCI-H522 lung = system: NCI-H522 lung
MDA-MB-231 breast = system: MDA-MB-231 breast
SF-539 CNS = system: SF-539 CNS
SF-268 CNS = system: SF-268 CNS
MCF7 breast = system: MCF7 breast
T-47D breast = system: T-47D breast
A498 renal = system: A498 renal
NCI/ADR-RES ovarian = system: NCI/ADR-RES ovarian
SR leukemia = system: SR leukemia
MDA-MB-435 = system: MDA-MB-435
MDA-N = system: MDA-N
BT-549 breast = system: BT-549 breast
HS 578T breast = system: HS 578T breast
DU-145 prostate = system: DU-145 prostate

C[C@@H](NC1CCC[C@@H]1O)c1ccccc1 (some centres not stated)
TGI (SN12C renal): > 100000 nM | TGI (SK-OV-3 ovarian): > 100000 nM | TGI (NCI-H226 lung): > 100000 nM | TGI (RXF 393 renal): > 100000 nM | TGI (HOP-18 NSCLC): > 100000 nM | TGI (SNB-75 CNS): > 100000 nM | TGI (SK-MEL-2 melanoma): > 100000 nM | TGI (UO-31 renal): > 100000 nM | TGI (NCI-H460 lung): > 100000 nM | TGI (COLO 205 colon): > 100000 nM | TGI (UACC-62 melanoma): > 100000 nM | TGI (SNB-19 CNS): > 100000 nM | TGI (IGROV1 ovarian): > 100000 nM | TGI (CAKI-1 renal): > 100000 nM | TGI (MOLT-4 leukemia): > 100000 nM | TGI (HCC-2998 colon): > 100000 nM | TGI (A549 NSCLC): > 100000 nM | TGI (786-0 renal): > 100000 nM | TGI (ACHN renal): > 100000 nM | TGI (EKVX NSCLC): > 100000 nM | TGI (HCT-15 colon): > 100000 nM | TGI (M19-MEL melanoma): > 100000 nM | TGI (HCT-116 colon): > 100000 nM | TGI (HT29 colon): > 100000 nM | TGI (RPMI-8226 leukemia): > 100000 nM | TGI (LXFL 529 NSCLC): > 100000 nM | TGI (UACC-257 melanoma): > 100000 nM | TGI (XF 498 CNS): > 100000 nM | TGI (SF-295 CNS): > 100000 nM | TGI (OVCAR-4 ovarian): > 100000 nM | TGI (LOX IMVI melanoma): > 100000 nM | TGI (K-562 leukemia): > 100000 nM | TGI (SW-620 colon): > 100000 nM | TGI (DLD-1 colon): > 100000 nM | TGI (OVCAR-3 ovarian): > 100000 nM | TGI (SK-MEL-28 melanoma): > 100000 nM | TGI (HL-60(TB) leukemia): > 100000 nM | TGI (TK-10 renal): > 100000 nM | TGI (MALME-3M melanoma): > 100000 nM | TGI (U251 CNS): > 100000 nM | TGI (SK-MEL-5 melanoma): > 100000 nM | TGI (CCRF-CEM leukemia): > 100000 nM | TGI (KM12 colon): > 100000 nM | TGI (M14 melanoma): > 100000 nM | TGI (DMS 273 small cell lung): > 100000 nM | TGI (OVCAR-8 ovarian): > 100000 nM | TGI (HOP-62 NSCLC): > 100000 nM | TGI (HOP-92 NSCLC): > 100000 nM | TGI (SNB-78 CNS): > 100000 nM | TGI (KM20L2 colon): > 100000 nM | TGI (OVCAR-5 ovarian): > 100000 nM | TGI (DMS 114 small cell lung): > 100000 nM

O=C1C=C(N2CC2)C(=O)C=C1N1CC1
GI50 (SN12C renal): 30.7 nM | TGI (SN12C renal): 278 nM and 1140 nM | GI50 (NCI-H23 lung): 14.1 nM | TGI (NCI-H23 lung): 132 nM and 289 nM | GI50 (NCI-H522 lung): 8.26 nM | TGI (NCI-H522 lung): 72.7 nM and 144 nM | TGI (SK-OV-3 ovarian): 2190 nM | GI50 (NCI-H226 lung): 12.9 nM | TGI (NCI-H226 lung): 261 nM and 1400 nM | GI50 (RXF 393 renal): 2.46 nM | GI50 (MDA-MB-231 breast): 79.2 nM | GI50 (SNB-75 CNS): 7.36 nM | GI50 (SK-MEL-2 melanoma): 28.2 nM | TGI (SK-MEL-2 melanoma): 60.5 nM and 360 nM | TGI (UO-31 renal): 229 nM | GI50 (SF-539 CNS): 22.1 nM | TGI (SF-539 CNS): 267 nM and 268 nM | GI50 (NCI-H460 lung): 5.21 nM | TGI (NCI-H460 lung): 200 nM and 781 nM | GI50 (COLO 205 colon): 34 nM | TGI (COLO 205 colon): 126 nM and 267 nM | GI50 (SF-268 CNS): 10.9 nM | TGI (SF-268 CNS): 299 nM and 1500 nM | GI50 (UACC-62 melanoma): 10 nM | GI50 (SNB-19 CNS): 203 nM | TGI (SNB-19 CNS): 4720 nM | TGI (IGROV1 ovarian): 2480 nM | GI50 (CAKI-1 renal): 0.251 nM | TGI (CAKI-1 renal): 24.7 nM and 67.5 nM | GI50 (MOLT-4 leukemia): 1.97 nM | TGI (MOLT-4 leukemia): 248 nM | GI50 (HCC-2998 colon): 23.4 nM | TGI (HCC-2998 colon): 150 nM and 739 nM | GI50 (A549 NSCLC): 145 nM and 860 nM | TGI (A549 NSCLC): 11200 nM | TGI (ACHN renal): 303 nM | GI50 (EKVX NSCLC): 404 nM and 2650 nM | TGI (EKVX NSCLC): 4840 nM | GI50 (HCT-15 colon): 20.7 nM | TGI (HCT-15 colon): 231 nM and 1210 nM | GI50 (HT29 colon): 18.5 nM | TGI (HT29 colon): 1400 nM | GI50 (MCF7 breast): 2.05 nM | TGI (MCF7 breast): 71.2 nM | GI50 (RPMI-8226 leukemia): 45.6 nM | TGI (RPMI-8226 leukemia): 503 nM and 1870 nM | TGI (LXFL 529 NSCLC): 527 nM | GI50 (UACC-257 melanoma): 121 nM | TGI (UACC-257 melanoma): 339 nM and 999 nM | TGI (XF 498 CNS): 538 nM | GI50 (SF-295 CNS): 38 nM | TGI (SF-295 CNS): 266 nM and 1300 nM | GI50 (OVCAR-4 ovarian): 185 nM | TGI (OVCAR-4 ovarian): 983 nM and 613 nM | GI50 (T-47D breast): 51.6 nM | TGI (T-47D breast): 582 nM and 2850 nM | GI50 (LOX IMVI melanoma): 29.8 nM | TGI (LOX IMVI melanoma): 206 nM and 386 nM | GI50 (K-562 leukemia): 246 nM | TGI (K-562 leukemia): 2940 nM | TGI (A498 renal): 158 nM | GI50 (SW-620 colon): 14.7 nM | TGI (SW-620 colon): 848 nM | TGI (DLD-1 colon): 1500 nM | GI50 (OVCAR-3 ovarian): 153 nM | TGI (OVCAR-3 ovarian): 967 nM and 277 nM | GI50 (SK-MEL-28 melanoma): 187 nM | TGI (SK-MEL-28 melanoma): 680 nM and 654 nM | GI50 (HL-60(TB) leukemia): 2.33 nM | TGI (HL-60(TB) leukemia): 510 nM and 197 nM | GI50 (TK-10 renal): 208 nM | TGI (TK-10 renal): 772 nM | GI50 (MALME-3M melanoma): 49.8 nM | TGI (MALME-3M melanoma): 234 nM and 238 nM | GI50 (NCI/ADR-RES ovarian): 24.1 nM | GI50 (U251 CNS): 23.3 nM | TGI (U251 CNS): 284 nM and 1490 nM | GI50 (SK-MEL-5 melanoma): 15.5 nM | TGI (SK-MEL-5 melanoma): 72 nM and 307 nM | GI50 (SR leukemia): 26.6 nM | TGI (SR leukemia): 302 nM | GI50 (CCRF-CEM leukemia): 5.68 nM | TGI (CCRF-CEM leukemia): 456 nM | GI50 (MDA-MB-435): 20.6 nM | GI50 (KM12 colon): 242 nM | TGI (KM12 colon): 2220 nM | GI50 (M14 melanoma): 28.8 nM | TGI (M14 melanoma): 249 nM | GI50 (MDA-N): 113 nM | TGI (MDA-N): 274 nM and 1900 nM | TGI (DMS 273 small cell lung): 520 nM | TGI (OVCAR-8 ovarian): 4310 nM | GI50 (BT-549 breast): 20.7 nM | TGI (BT-549 breast): 159 nM and 1340 nM | GI50 (HOP-62 NSCLC): 68.7 nM | TGI (HOP-62 NSCLC): 738 nM | GI50 (HOP-92 NSCLC): 152 nM | TGI (HOP-92 NSCLC): 576 nM and 1560 nM | TGI (SNB-78 CNS): 1800 nM | TGI (KM20L2 colon): 1740 nM | GI50 (OVCAR-5 ovarian): 78.4 nM | TGI (OVCAR-5 ovarian): 366 nM and 2200 nM | TGI (DMS 114 small cell lung): 644 nM | TGI (HS 578T breast): 8140 nM | GI50 (DU-145 prostate): 10.9 nM
